The source of these data is patent US20130109646A1, “METHOD FOR TREATING GLAUCOMA OR OCULAR HYPERTENSION WITH AN ADENOSINE DERIVATIVE” (priority 2007, published 2013).

For assay [1], the system named is intraocular pressure. The experiment in a line: Test for intraocular pressure reduction using cynomolgus monkeys. It is filed as in vivo. The conditions noted are these: male cynomolgus monkeys; for Maximum intraocular pressure reduction degree: 0.1% (w/v) test liquid instilled into one eye twice a day for 7 days, maximum over 2, 4, 6, 8 h after administration (Compound B: pH 7, 1, 2, 4, 6 h), average of 5 to 6 cases. On the procedure:
In order to examine the usefulness of the present compound as a preventive or therapeutic agent for glaucoma or ocular hypertension, an intraocular pressure lowering effect when the present compound was administered to cynomolgus monkeys (sex: male) was evaluated and studied. As the test compound, Compound A, Compound B, Compound C, Compound D, Compound E, Compound F, Compound G, Compound H and Compound I were used.
1) Just before a test liquid was administered, one drop of 0.4% oxybuprocaine hydrochloride eye drop was instilled into both eyes of each experimental animal to achieve local anesthesia, and the intraocular pressure was measured using an applanation tonometer. This intraocular pressure was determined as an initial intraocular pressure.
2) A 0.1% (w/v) test liquid (a solution or suspension) was prepared, and the test liquid was instilled into one eye of each experimental animal twice a day for 7 days. The other eye was left untreated, or a vehicle was instilled into the eye according to the same schedule. Incidentally, the test liquid was prepared according to the preparation method for an eye drop described above. Specifically, to 10 mM phosphate buffer or 1.7% borate buffer, polysorbate 80 and any of the test compounds were added and dissolved or dispersed therein. Then, the pH of the resulting solution or dispersion was adjusted to 5 with sodium hydroxide and/or dilute hydrochloric acid, whereby a test liquid containing each test compound was prepared (only in the case of Compound B, the pH of the test liquid was adjusted to 7).
3) After the test liquid was administered, the intraocular pressure of both eyes of each experimental animal was measured at predetermined times (at 2, 4, 6, and 8 hours after administration) (only in the case of Compound B, the intraocular pressure was measured at 1, 2, 4 and 6 hours after administration). Incidentally, before measurement, one drop of 0.4% oxybuprocaine hydrochloride eye drop was instilled into both eyes of each experimental animal to achieve local anesthesia.
The intraocular pressure reduction degree of each test compound administration group at each measurement time was calculated from the following calculation formula. Among the obtained intraocular pressure reduction degrees at respective measurement times, the maximum value was determined as a maximum intraocular pressure reduction degree.
Intraocular pressure reduction degree(mmHg)=|IOP (D−t)−IOP(D−0)| Equation 1
IOP (D-t): Intraocular pressure of the eye into which the test compound was administered at t hours after administration of test compound IOP (D-0): Initial intraocular pressure of the eye into which the test compound was administered

Assay [2] deals with intraocular pressure. In words: Test for intraocular pressure reduction using Japanese white rabbits. The assay is classed as in vivo. The conditions noted are these: male Japanese white rabbits; for Intraocular pressure reduction degree: single dose into one eye, at 2 or 4 hours after instillation at which the pressure decreased most, average of 5 to 6 cases; for intraocular pressure lowering action (in words): single instillation, 0.003 to 0.2% (w/v) depending on compound. Here is the method:
In order to examine the usefulness of the present compound as a preventive or therapeutic agent for glaucoma or ocular hypertension, an intraocular pressure lowering effect when the present compound was administered to Japanese white rabbits (sex: male) was evaluated and studied. As the test compound, Compound A, Compound B, Compound C, Compound E, Compound I and Compound J were used. According to the preparation method for an eye drop described above, each test liquid containing Compound A (0.003% (w/v)), Compound B (0.2% (w/v)), Compound C (0.01% (w/v)), Compound E (0.01% (w/v)), Compound I (0.01% (w/v)) or Compound J (0.01% (w/v)) was prepared. Specifically, to 10 mM phosphate buffer or 1.7% borate buffer, polysorbate 80 and any of the test compounds were added and dissolved or dispersed therein. Then, the pH of the resulting solution or dispersion was adjusted to 5 with sodium hydroxide and/or dilute hydrochloric acid, whereby a test liquid containing each test compound was prepared (only in the case of Compound B, the pH of the test liquid was adjusted to 7). 1) Just before any of the test liquids was administered, one drop of 0.4% oxybuprocaine hydrochloride eye drop was instilled into both eyes of each experimental animal to achieve local anesthesia, and the intraocular pressure was measured using an applanation tonometer. This intraocular pressure was determined as an initial intraocular pressure. 2) Any of the prepared test liquids was administered into one eye of each experimental animal in a single dose. The other eye was left untreated, or a vehicle was instilled into the eye according to the same schedule. 3) After the test liquid was administered, the intraocular pressure of both eyes of each experimental animal was measured at predetermined times (at […] after administration). Incidentally, before measurement, one drop of 0.4% oxybuprocaine hydrochloride eye drop was instilled into both eyes of each experimental animal to achieve local anesthesia. The intraocular pressure reduction degree of each test compound administration group at each measurement time was calculated from the following calculation formula. Intraocular pressure reduction degree (mmHg)=|IOP (Ad−t)−IOP(Ad−0) Equation 2 IOP (Ad-t): Intraocular pressure of the eye into which the test compound was administered at t hours after administration of test compound IOP (Ad-0): Initial intraocular pressure of the eye into which the test compound was administered

As for `COC(=O)N1CCC(CC#Cc2nc(N)c3ncn([C@@H]4O[C@H](C(=O)NC5CC5)[C@@H](O)[C@H]4O)c3n2)CC1` [Compound A, 4-{3-[6-amino-9-((2R,3R,4S,5S)-5-cyclopropylcarbamoyl-3,4-dihydroxytetrahydrofuran-2-yl)-9H-purin-2-yl]-2-propynyl}-piperidine-1-carboxylic acid methyl ester], the “intraocular pressure lowering action (in words)” value in the assay on intraocular pressure [1] (0.1% (w/v) instilled twice a day for 7 days) and in the assay with intraocular pressure [2] was “significantly higher intraocular pressure lowering action among the present compounds” each time. In addition, the “lowering of trough intraocular pressure by repeated instillation (in words)” value in the assay with intraocular pressure [1] (0.1% (w/v) repeated instillation (BID)) is “exhibited a high lowering action”. In the assay with intraocular pressure [1] (0.1% (w/v) repeated instillation (BID) for 7 days, difference from vehicle group), the “trough intraocular pressure value on day 7, lower than that in the vehicle administration group” value was 1.0 mmHg. Besides, in the assay on intraocular pressure [1], the “Maximum intraocular pressure reduction degree” value is given as 4.9 mmHg. Moreover, in the assay on intraocular pressure [2] (0.003% (w/v) test liquid), the “Intraocular pressure reduction degree” value was 3.8 mmHg.

As to `CCNC(=O)[C@H]1O[C@@H](n2cnc3c(N)nc(C#CCC4CCC(C(=O)OC)CC4)nc32)[C@H](O)[C@@H]1O` (stereo partly drawn) [Compound B, 4-{3-[6-amino-9-((2R,3R,4S,5S)-5-ethylcarbamoyl-3,4-dihydroxytetrahydrofuran-2-yl)-9H-purin-2-yl]-2-propynyl}-cyclohexane-1-carboxylic acid methyl ester], in the assay on intraocular pressure [1], the “Maximum intraocular pressure reduction degree” value came to 2.2 mmHg. In the assay on intraocular pressure [2] (0.2% (w/v) test liquid (pH 7)), the “Intraocular pressure reduction degree” value was found to be 2.1 mmHg.

With `CCNC(=O)[C@H]1O[C@@H](n2cnc3c(N)nc(C#CCC4CCN(C(=O)OC)CC4)nc32)[C@H](O)[C@@H]1O` [Compound C, 4-{3-[6-amino-9-((2R,3R,4S,5S)-5-ethylcarbamoyl-3,4-dihydroxytetrahydrofuran-2-yl)-9H-purin-2-yl]-2-propynyl}-piperidine-1-carboxylic acid methyl ester], the “Maximum intraocular pressure reduction degree” value in the assay on intraocular pressure [1] is 2.7 mmHg. Moreover, the “Intraocular pressure reduction degree” value with intraocular pressure [2] (0.01% (w/v) test liquid) came out at 2.8 mmHg.

Take `CCNC(=O)[C@H]1O[C@@H](n2cnc3c(N)nc(C#CCC4CCN(C(=O)OCC)CC4)nc32)[C@H](O)[C@@H]1O` [Compound D, 4-{3-[6-amino-9-((2R,3R,4S,5S)-5-ethylcarbamoyl-3,4-dihydroxytetrahydrofuran-2-yl)-9H-purin-2-yl]-2-propynyl}-piperidine-1-carboxylic acid ethyl ester]: in the assay with intraocular pressure [1], the “Maximum intraocular pressure reduction degree” value is 2.9 mmHg.

For the molecule `CCNC(=O)[C@H]1O[C@@H](n2cnc3c(N)nc(C#CCC4CCN(C(=O)OC(C)C)CC4)nc32)[C@H](O)[C@@H]1O` [Compound E, 4-{3-[6-amino-9-((2R,3R,4S,5S)-5-ethylcarbamoyl-3,4-dihydroxytetrahydrofuran-2-yl)-9H-purin-2-yl]-2-propynyl}-piperidine-1-carboxylic acid isopropyl ester], in the assay on intraocular pressure [1], the “Maximum intraocular pressure reduction degree” value is listed as 2.9 mmHg. In addition, the “Intraocular pressure reduction degree” value in the assay on intraocular pressure [2] (0.01% (w/v) test liquid) turned out to be 2.6 mmHg.

Turning to `Nc1nc(C#CCC2CCN(C(=O)Oc3ccc(F)cc3)CC2)nc2c1ncn2[C@@H]1O[C@H](C(=O)NC2CC2)[C@@H](O)[C@H]1O` [Compound F, 4-{3-[6-amino-9-((2R,3R,4S,5S)-5-cyclopropylcarbamoyl-3,4-dihydroxytetrahydrofuran-2-yl)-9H-purin-2-yl]-2-propynyl}-piperidine-1-carboxylic acid 4-fluorophenyl ester], the “Maximum intraocular pressure reduction degree” value in the assay with intraocular pressure [1] is on record as 2.7 mmHg.

Consider `COc1ccccc1OC(=O)N1CCC(CC#Cc2nc(N)c3ncn([C@@H]4O[C@H](C(=O)NC5CC5)[C@@H](O)[C@H]4O)c3n2)CC1` [Compound G, 4-{3-[6-amino-9-((2R,3R,4S,5S)-5-cyclopropylcarbamoyl-3,4-dihydroxytetrahydrofuran-2-yl)-9H-purin-2-yl]-2-propynyl}-piperidine-1-carboxylic acid 2-methoxyphenyl ester], for which the “Maximum intraocular pressure reduction degree” value in the assay with intraocular pressure [1] is on record as 2.7 mmHg.

With `COc1ccc(OC(=O)N2CCC(CC#Cc3nc(N)c4ncn([C@@H]5O[C@H](C(=O)NC6CC6)[C@@H](O)[C@H]5O)c4n3)CC2)cc1` [Compound H, 4-{3-[6-amino-9-((2R,3R,4S,5S)-5-cyclopropylcarbamoyl-3,4-dihydroxytetrahydrofuran-2-yl)-9H-purin-2-yl]-2-propynyl}-piperidine-1-carboxylic acid 4-methoxyphenyl ester], the “Maximum intraocular pressure reduction degree” value with intraocular pressure [1] is 2.3 mmHg.

`Nc1nc(C#CCC2CCN(C(=O)Oc3ccc(F)c(F)c3)CC2)nc2c1ncn2[C@@H]1O[C@H](C(=O)NC2CC2)[C@@H](O)[C@H]1O` [Compound I, 4-{3-[6-amino-9-((2R,3R,4S,5S)-5-cyclopropylcarbamoyl-3,4-dihydroxytetrahydrofuran-2-yl)-9H-purin-2-yl]-2-propynyl}-piperidine-1-carboxylic acid 3,4-difluorophenyl ester]: the “Maximum intraocular pressure reduction degree” value in the assay with intraocular pressure [1] is 1.8 mmHg. The “Intraocular pressure reduction degree” value in the assay with intraocular pressure [2] (0.01% (w/v) test liquid) stood at 1.7 mmHg.

On to `Nc1nc(C#CCC2CCN(C(=O)OC3CCC3)CC2)nc2c1ncn2[C@@H]1O[C@H](C(=O)NC2CC2)[C@@H](O)[C@H]1O` [Compound J, 4-{3-[6-amino-9-((2R,3R,4S,5S)-5-cyclopropylcarbamoyl-3,4-dihydroxytetrahydrofuran-2-yl)-9H-purin-2-yl]-2-propynyl}-piperidine-1-carboxylic acid cyclobutyl ester], for which the “Intraocular pressure reduction degree” value in the assay with intraocular pressure [2] (0.01% (w/v) test liquid) is given as 4.1 mmHg. The “intraocular pressure lowering action (in words)” value in the assay on intraocular pressure [2] is “significantly higher intraocular pressure lowering action among the present compounds”.
